Results published in publication PMC8587750, “Structural Optimization and Biological Activity of Pyrazole Derivatives: Virtual Computational Analysis, Recovery Assay and 3D Culture Model as Potential Predictive Tools of Effectiveness against Trypanosoma cruzi” (Molecules, 2021).
Like-named read-outs stand apart in the source and are kept apart here.

Columns and labels:
[1] = tested on: intracellular amastigotes of T. cruzi; assay: Activity against intracellular amastigotes in infected Vero cells (Dm28c-Luc, 72 h); type: cell-based, Trypanosoma cruzi; conditions: for IC50 / IC90: Trypanosoma cruzi; for IC50: Vero; for Intracellular Amastigotes SI: CC50 of Vero cells/IC50 of intracellular amastigote; for IC90: read-out: Trypanocidal Activity Intracellular Amastigotes IC90
Description: (§1) T. cruzi Dm28c clone genetically modified to express luciferase, kindly provided by Dr. Cristina Henriques from Oswaldo Cruz Institute–Fiocruz, was used in the drug assays. Trypomastigotes were harvested from T. cruzi-infected Vero cultures supernatants at 4th days post-infection (dpi) and used in the phenotypic screening assay. For intracellular amastigotes assays, Vero cells (2D and 3D cultures) were infected at a ratio of 10:1 parasites/host cells.
The effect of the pyrazole derivatives against intracellular amastigotes was also evaluated after 72 h treatment (37 °C) with compound concentrations ranging from 0.04–100 µM [13]. Parasite viability, measured by luminescent signal, was determined after luciferin (300 µg/mL) addition. IC50 and IC90 values were calculated by linear regression. Selectivity index (SI) was calculated as the ratio of the CC50 to IC50 values. The non-toxic concentration of DMSO (less than 1% v/v) was used in all assays. A minimum of three independent assays was carried out in duplicate.

[2] = tested on: trypomastigote forms of T. cruzi; assay: Phenotypic screening against T. cruzi trypomastigotes (Dm28c-Luc, luciferase viability, 24 h); type: cell-based, Trypanosoma cruzi; conditions: for IC50 / IC90: Trypanosoma cruzi, Dm28c-Luc, 24 h; for IC50: read-out: Trypanocidal Activity Trypomastigotes IC50; for Trypomastigotes SI: CC50 of Vero cells/IC50 of trypomastigote; for IC90: read-out: Trypanocidal Activity Trypomastigotes IC90
Description: as §1
The phenotypic compound screening was performed using transgenic T. cruzi parasites expressing the firefly luciferase (Dm28c-Luc). Trypomastigotes (1 × 10^6 parasites/well) were treated for 24 h at 37 °C with the pyrazole derivatives and Bz (0.04–100 μM), followed by incubation with luciferin substrate (300 µg/mL) to determine parasite viability through luciferase activity. The concentration that reduces the number of viable parasites by 50% (IC50) or 90% (IC90) was calculated by linear regression. The luminescent signal was read on a Glomax-Multi Detection plate reader (Promega Corporation, Madison, WI, EUA)). At least three independent assays were performed in duplicate.

[3] = Cytotoxicity in vitro assay (ATP, CellTiter Glo, 72 h); type: cell-based; conditions: African green monkey, Vero cells
Procedure: Vero cells, obtained from the Rio de Janeiro Cell Bank (BCRJ code 0245), were cultured in RPMI-1640 supplemented with 10% fetal bovine serum (FBS) and 1 mM L-glutamine, as previously described. Vero cells were used for drug screening assays and to obtain trypomastigote forms of T. cruzi.
Vero cells were used as a cellular model to analyze the toxic effect of pyrazole derivatives, series 1(a–l), 2(a–l), 3(a–n), 4(a–c), and 5(a–c), and Benznidazole (Bz) on mammalian cells. Briefly, the cells, plated on 96-well white opaque microplate (1.5 × 10^4 cells/well), were treated for 72 h at 37 °C with a wide range concentration (500–1.95 µM) of the pyrazole derivatives. The cell viability was determined by measuring ATP levels using the CellTiter Glo Kit (Promega Corporation, Madison, WI, EUA) followed by reading the luminescent signal on the Glomax-Multi Detection plate reader (Promega Corporation, Madison, WI, EUA)). All treatments and controls were performed at a low concentration of DMSO (≤1%). The 50% cytotoxic concentration values (CC50; the concentration of the compound that reduces 50% of the cell viability) were estimated by linear regression analysis. Three independent assays were performed in duplicate.

[4] = negative log of the IC50 value in molar, read-out: Intracellular Amastigotes pIC50 (converted)
[5] = 72 h, Vero cells infected with Dm28c-Luc, 72 h, read-out: Trypanocidal Activity Intracellular Amastigotes IC50
[6] = Vero cells infected with Dm28c-Luc, 72 h

SMILES | IC50 [1, 4] | melting point | further results
NC(=O)c1cnn(-c2ccccc2)c1 [Compound 1a, 1-phenyl-1H-pyrazole-4-carboxamide] | > 50.1 µM | 224 to 225 °C | 
NC(=O)c1cnn(-c2cccc(Cl)c2)c1 [Compound 1b, 1-(3-chlorophenyl)-1H-pyrazole-4-carboxamide] | > 50.1 µM | 202 to 204 °C | 
NC(=O)c1cnn(-c2ccc(Cl)cc2Cl)c1 [Compound 1c, 1-(2,4-dichlorophenyl)-1H-pyrazole-4-carboxamide] | > 50.1 µM | 184 to 186 °C | 
NC(=O)c1cnn(-c2cc(Cl)cc(Cl)c2)c1 [Compound 1d, 1-(3,5-dichlorophenyl)-1H-pyrazole-4-carboxamide] | > 50.1 µM | 240 to 242 °C | 
NC(=O)c1cnn(-c2ccc(Cl)c(Cl)c2)c1 [Compound 1e, 1-(3,4-dichlorophenyl)-1H-pyrazole-4-carboxamide] | > 50.1 µM | 190 to 192 °C | 
NC(=O)c1cnn(-c2ccc(Cl)cc2)c1 [Compound 1f, 1-(4-chlorophenyl)-1H-pyrazole-4-carboxamide] | > 50.1 µM | 234 to 236 °C | 
NC(=O)c1cnn(-c2ccc(F)cc2)c1 [Compound 1g, 1-(4-fluorophenyl)-1H-pyrazole-4-carboxamide] | > 50.1 µM | 244 to 246 °C | 
NC(=O)c1cnn(-c2cccc(F)c2)c1 [Compound 1h, 1-(3-fluorophenyl)-1H-pyrazole-4-carboxamide] | > 50.1 µM | 206 to 208 °C | 
NC(=O)c1cnn(-c2ccc(Br)cc2)c1 [Compound 1i, 1-(4-bromophenyl)-1H-pyrazole-4-carboxamide] | > 50.1 µM | 242 to 244 °C | 
NC(=O)c1cnn(-c2cccc(Br)c2)c1 [Compound 1j, 1-(3-bromophenyl)-1H-pyrazole-4-carboxamide] | > 50.1 µM | 212 to 214 °C | 
COc1ccc(-n2cc(C(N)=O)cn2)cc1 [Compound 1k, 1-(4-methoxyphenyl)-1H-pyrazole-4-carboxamide] | > 50.1 µM | 220 to 222 °C | 
NC(=O)c1cnn(-c2cccc(Cl)c2Cl)c1 [Compound 1l, 1-(2,3-dichlorophenyl)-1H-pyrazole-4-carboxamide] | > 50.1 µM | 220 to 224 °C | 
NC(=O)c1cnn(-c2cccc(Cl)c2)c1N [Compound 2b, 5-amino-1-(3-chlorophenyl)-1H-pyrazole-4-carboxamide] | > 70.8 µM | 168 to 170 °C | 
NC(=O)c1cnn(-c2ccc(Cl)cc2Cl)c1N [Compound 2c, 5-amino-1-(2,4-dichlorophenyl)-1H-pyrazole-4-carboxamide] | > 70.8 µM | 212 to 214 °C | 
NC(=O)c1cnn(-c2cc(Cl)cc(Cl)c2)c1N [Compound 2d, 5-amino-1-(3,5-dichlorophenyl)-1H-pyrazole-4-carboxamide] | > 70.8 µM | 184 to 186 °C | 
NC(=O)c1cnn(-c2ccc(Cl)c(Cl)c2)c1N [Compound 2e, 5-amino-1-(3,4-dichlorophenyl)-1H-pyrazole-4-carboxamide] | > 70.8 µM | 204 to 212 °C | 
NC(=O)c1cnn(-c2ccc(Cl)cc2)c1N [Compound 2f, 5-amino-1-(4-chlorophenyl)-1H-pyrazole-4-carboxamide] | > 70.8 µM | 196 to 200 °C | 
NC(=O)c1cnn(-c2ccc(F)cc2)c1N [Compound 2g, 5-amino-1-(4-fluorophenyl)-1H-pyrazole-4-carboxamide] | > 70.8 µM | 232 to 234 °C | 
NC(=O)c1cnn(-c2cccc(F)c2)c1N [Compound 2h, 5-amino-1-(3-fluorophenyl)-1H-pyrazole-4-carboxamide] | > 70.8 µM | 178 to 182 °C | 
NC(=O)c1cnn(-c2ccc(Br)cc2)c1N [Compound 2i, 5-amino-1-(4-bromophenyl)-1H-pyrazole-4-carboxamide] | > 70.8 µM | 138 to 142 °C | 
NC(=O)c1cnn(-c2cccc(Br)c2)c1N [Compound 2j, 5-amino-1-(3-bromophenyl)-1H-pyrazole-4-carboxamide] | > 70.8 µM | 138 to 142 °C | 
COc1ccc(-n2ncc(C(N)=O)c2N)cc1 [Compound 2k, 5-amino-1-(4-methoxyphenyl)-1H-pyrazole-4-carboxamide] | > 70.8 µM | 214 to 218 °C | 
NC(=O)c1cnn(-c2cccc(Cl)c2Cl)c1N [Compound 2l, 5-amino-1-(2,3-dichlorophenyl)-1H-pyrazole-4-carboxamide] | > 70.8 µM | 160 to 164 °C | 
c1ccc(-n2cc(C3=NCCN3)cn2)cc1 [Compound 3a, 4-(4,5-dihydro-1H-imidazol-2-yl)-1-phenyl-1H-pyrazole] | 93.3 µM | 149 to 150 °C | IC50 [2]: > 100 µM; Intracellular Amastigotes SI [1]: >5.44; IC50 [1, 5]: 91.8 ± 2.03 µM; IC90 [1, 6]: > 100 µM; CC50 at 72 h [3]: > 500 µM
Clc1cccc(-n2cc(C3=NCCN3)cn2)c1 [Compound 3b, 1-(3-chlorophenyl)-4-(4,5-dihydro-1H-imidazol-2-yl)-1H-pyrazole] | 28.2 µM | 120 to 124 °C | IC50 [2]: > 100 µM; fold drop in activity on moving Cl or Br to the meta position ([1]; 3b compared to 3g, 3k compared to 3j): five; Intracellular Amastigotes SI [1]: 9.48; IC50 [1, 5]: 28.2 ± 1.81 µM; IC90 [1, 6]: 86.6 ± 5.55 µM; CC50 at 72 h [3]: 267 ± 28.1 µM
Clc1ccc(-n2cc(C3=NCCN3)cn2)c(Cl)c1 [Compound 3c, 1-(2,4-dichlorophenyl)-4-(4,5-dihydro-1H-imidazol-2-yl)-1H-pyrazole] | 56.2 µM | 110 to 111 °C | IC50 [2]: > 100 µM; Intracellular Amastigotes SI [1]: 7.21; IC50 [1, 5]: 56.6 ± 2.52 µM; IC90 [1, 6]: 94.6 ± 3.61 µM; CC50 at 72 h [3]: 409 ± 16.2 µM
Clc1cc(Cl)cc(-n2cc(C3=NCCN3)cn2)c1 [Compound 3d, 1-(3,5-dichlorophenyl)-4-(4,5-dihydro-1H-imidazol-2-yl)-1H-pyrazole] | 55 µM | 83 to 84 °C | Trypomastigotes SI [2]: 5.78; IC50 [2]: 66.3 ± 5.53 µM; IC90 [2]: 93.5 ± 1.56 µM; Intracellular Amastigotes SI [1]: 6.99; IC50 [1, 5]: 54.9 ± 7.12 µM; IC90 [1, 6]: > 100 µM; CC50 at 72 h [3]: 384 ± 23 µM
Clc1ccc(-n2cc(C3=NCCN3)cn2)cc1Cl [Compound 3e, 1-(3,4-dichlorophenyl)-4-(4,5-dihydro-1H-imidazol-2-yl)-1H-pyrazole] | 75.9 µM | 185 to 186 °C | Trypomastigotes SI [2]: 7.39; IC50 [2]: 64.9 ± 2.85 µM; IC90 [2]: 93.74 ± 0.73 µM; Intracellular Amastigotes SI [1]: 6.26; IC50 [1, 5]: 76.5 ± 8.79 µM; IC90 [1, 6]: > 100 µM; CC50 at 72 h [3]: 480 ± 21.7 µM
Clc1cccc(Cl)c1-n1cc(C2=NCCN2)cn1 [Compound 3f, 1-(2,6-dichlorophenyl)-4-(4,5-dihydro-1H-imidazol-2-yl)-1H-pyrazole] | 81.3 µM | 221 to 223 °C | IC50 [2]: > 100 µM; Intracellular Amastigotes SI [1]: >6; IC50 [1, 5]: 82 ± 2.52 µM; IC90 [1, 6]: > 100 µM; CC50 at 72 h [3]: > 500 µM
